Experimental data: patent US8957070B2, “Glucokinase activator compounds, methods of activating glucokinase and methods of treating diabetes and obesity” (Takeda Pharmaceutical Company Limited, priority 2005, dated 2015)

Columns and labels:
[1] = target: T1, GST-hLGK1 (human liver type GK) (Homo sapiens, UniProt P35557); assay: Determination of GK activity value (Mant-ATP conversion, capillary electrophoresis); assay type: biochemical; conditions: concentration necessary for activating 50% of the maximum GK activity value, 37° C., 60 min, D-glucose added
T1 construct: with a BamHI site added to immediately before the initiation codon; made in house; host or cells: Escherichia coli BL21
T1 sequence (P35557 1-464 isoform P35557-3): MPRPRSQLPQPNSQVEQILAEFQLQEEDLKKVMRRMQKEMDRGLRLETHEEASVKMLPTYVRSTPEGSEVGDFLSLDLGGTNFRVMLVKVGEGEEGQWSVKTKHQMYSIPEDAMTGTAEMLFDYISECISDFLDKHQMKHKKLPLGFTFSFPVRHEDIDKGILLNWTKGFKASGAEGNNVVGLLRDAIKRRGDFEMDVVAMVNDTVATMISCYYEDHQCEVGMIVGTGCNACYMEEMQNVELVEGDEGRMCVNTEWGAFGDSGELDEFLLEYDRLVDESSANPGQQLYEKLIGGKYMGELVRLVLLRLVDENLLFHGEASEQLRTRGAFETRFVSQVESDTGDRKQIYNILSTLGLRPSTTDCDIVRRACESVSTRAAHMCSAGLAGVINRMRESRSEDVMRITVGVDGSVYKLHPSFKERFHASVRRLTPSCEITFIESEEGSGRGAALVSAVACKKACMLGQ
Protocol: A solution (5 μL) of test compound in 50% dimethyl sulfoxide was added to each well of 384 well black plate (Nalge Nunc International K.K.). Then, a solution (35 μL) obtained by diluting GST-hLGK1 obtained in Reference Example 2A with measurement buffer (containing 50 mM HEPES (pH 7.4), 200 mM KCl, 5 mM MgCl2, 2.5 mM DTT and 50 μM 2′-(or -3′)-O—(N-methylanthraniloyl)adenosine 5′-triphosphate (Mant-ATP) (Jena Bioscience GmbH)) to 6 μg/mL was added to each well.
Each well was stood at 37° C. for 10 min, and 25 mM D-glucose solution (10 μL) was added to start the reaction.
Each well after the reaction was stood at 37° C. for 60 min, and the reaction was quenched by adding 25 μL of a quenching solution (containing 200 mM HEPES (pH 7.4), 20 mM MgCl2, 200 mM EDTA, 0.03% Triton-X 100, 0.3% Coating 3 reagent (Caliper Life Sciences, Inc.)).
Mant-ATP (substrate) and Mant-ADP (reaction resultant product) were separated from each well after the reaction by a microchip type capillary electrophoresis apparatus 250 HTS (Caliper Life Sciences, Inc.). The reaction rate [(reaction resultant product peak height)/(reaction resultant product peak height+substrate peak height)×100(%)] was calculated from the ratio of the substrate peak height and reaction resultant product peak height obtained by fluorescence detection (excitation wavelength 355 nm, measurement wavelength 460 nm) and used as the index of GK activity.
As a control group, the reaction rate was calculated in the same manner as above except that “solution in 50% dimethyl sulfoxide” was used instead of “solution of test compound in 50% dimethyl sulfoxide”.
The percentage obtained by dividing the reaction rate of the well added with the test compound (test compound addition group) by the reaction rate of the well added with 50% solution in dimethyl sulfoxide alone (control group) was taken as the GK activity value of the test compound, and the concentration of the test compound necessary for activating 50% of the maximum value of the activity value is shown as EC50 value.

SMILES: CN(c1ccc(F)c2cc(-c3nccs3)[nH]c12)S(=O)(=O)c1cccs1 [Example 182, N-[4-fluoro-2-(1,3-thiazol-2-yl)-1H-indol-7-yl]-N-methylthiophene-2-sulfonamide]
- melting point: 197 to 198 °C
- EC50 [1]: 29 nM
